“Also recorded” adds a separate entry of the source.
Experiments:
[1] = test system: phosphorylation of the JNK target cJun in dermal SSc-fibroblasts; assay: Western Blot analysis of c-Jun phosphorylation in TGF-β/PDGF-stimulated cultured dermal fibroblasts; assay type: cell-based, human; details: pre-incubation with compound
Experimental: To analyze whether the JNK pathway was activated by TGF-β and PDGF, Western Blot analysis for c-Jun in cultured dermal fibroblasts was performed.
After rinsing twice with PBS, the dermal fibroblasts were trypsinized and lysed with Laemmli Buffer. Five μg of protein from each sample were separated by 10% SDS-PAGE and electrotransferred onto polyvinylidene difluoride (PVDF) membranes according to standard protocols (Distler J H, Jungel A, Kowal-Bielecka O, Michel B A, Gay R E, Sprott H, et al. Expression of interleukin-21 receptor in epidermis from patients with systemic sclerosis. Arthritis Rheum. 2005; 52(3):856-64). Immunoblots were incubated with monoclonal antibodies against c-Jun and phospho-c-Jun (Santa Cruz, Heidelberg, Germany) at a dilution of 1:200 overnight at 4° C. After incubation with horseradish peroxidase-conjugated rabbit anti-mouse antibodies (Dako, Hamburg, Germany) for 1 hour at a dilution of 1:2000, signals were detected with ECL Western Blotting Detection Reagents (Amersham Bioscience, Freiburg, Germany). For confirmation of equal loading of proteins, the amount of β-actin was determined using mouse anti-human β-actin antibodies (Sigma-Aldrich, Munich, Germany; dilution 1:10000).

[2] = test system: mice, bleomycin-induced pre-established dermal fibrosis; assay: Modified model of bleomycin-induced dermal fibrosis (regression of established fibrosis); assay type: in vivo, mouse
From the text: To evaluate, whether inhibition of JNK might also be effective for the treatment of established fibrosis, a modified model of bleomycin-induced dermal fibrosis was used. […] Thus, Compound JNKi-1 decreased the level of dermal thickness under the pre-treatment level (127±4% vs 175±8% compared to NaCl injections for 6 weeks, p=0.008 and p=0.021) (FIG. 7A).

[3] = test system: DBA/2J mice, bleomycin-induced skin fibrosis; assay: Bleomycin-induced dermal fibrosis mouse model (preventive treatment); assay type: in vivo; details: for reduction of collagen content in lesional skin (hydroxyproline assay): compared to bleomycin-treated animals
Experimental: The selective JNK inhibitor Compound JNKi-1 was tested in a bleomycin-induced dermal fibrosis mouse model, which is considered to represent the early and inflammatory stages of systemic sclerosis (Akhmetshina A, Venalis P, Dees C, Busch N, Zwerina J, Schett G, Distler O, Distler J H, Treatment with imatinib prevents fibrosis in different preclinical models of systemic sclerosis and induces regression of established fibrosis, Arthritis Rheum. 2009; 60(1):219-24). […] In animal models it will similarly induce injury and fibrosis at the site of delivery.
Male and female DBA/2J mice were used. Mice were fed a standard diet with water ad libitum. The room temperature was kept constant at 22° C. with a humidity of 60%.
Compound JNKi-1 was dissolved in 0.5% carboxymethylcellulose (CMC)/0.25% Tween 80 in water. Bleomycin was dissolved in 0.9% sodium chloride (NaCl) at a concentration of 0.5 mg/mL in a total volume of 100 μL. The positive control compound Imatinib mesylate was dissolved in 0.9% NaCl at a concentration of 50 mg/kg/day in a total volume of 100 μL.
Two different dose levels of the JNK-inhibitor Compound JNKi-1 (50 mg/kg and 150 mg/kg, administered twice daily) were used to analyze the anti-fibrotic activity in a mouse model of bleomycin-induced skin fibrosis. […] DBA/2J mice (n=5/sex/group) were assigned to one of five treatment groups: • Control group: 0.5% CMC/0.25% Tween 80 in water orally (PO) twice daily (BID) and subcutaneous injections of 100 μL 0.9% NaCl. • Untreated bleomycin group: intradermal injection of bleomycin and 0.5% CMC/0.25% Tween 80 in water orally BID. • 50 mg/kg Compound JNKi-1: intradermal injection of bleomycin and Compound JNKi-1 orally BID. • 150 mg/kg Compound JNKi-1: intradermal injection of bleomycin and Compound JNKi-1 orally BID. • Positive control group: intradermal injection of bleomycin and imatinib 50 mg/kg/day administered intraperitoneally (IP).
Localized dermal fibrosis was induced by injection of bleomycin every other day for 3 weeks in defined areas of the upper back. Compound JNKi-1 or imatinib was administrated starting from the first dose of bleomycin.
The dermal thickness was determined by staining with hematoxylin and eosin (H & E). The activated fibroblasts (myofibroblasts) at the fibrotic lesions were quantified by immunohistochemistry (IHC) for alpha smooth muscle actin (α-SMA). Collagen concentration in lesional skin was analyzed by hydroxyproline assay. Data are expressed as mean±standard error of the mean (SEM). SPSS17.0 software and the Mann-Whitney-U-test were used for statistical analyses. A p-value of less than 0.05 was considered statistically significant.

[4] = test system: fibroblasts from SSc patients; assay: MTT assay, SSc fibroblast viability; assay type: cell-based, human; details: 1 μM, 24-hr incubation
Experimental: Dermal fibroblasts from two SSc patients were treated for 24 hours (hr) with Compound JNKi-1 at concentrations from 0.1 μM to 10 μM (0.5% DMSO/99.5% cell culture media). To study the effect of Compound JNKi-1 on growth factor-induced collagen expression, recombinant transforming growth factor beta (TGF-β) (final concentration of 10 ng/mL) or platelet-derived growth factor-BB (PDGF-BB) (final concentration of 40 ng/mL) were added to cells 2 hr after the addition of JNK-inhibitor Compound JNKi-1 for 24 hr. The expression of collagen proteins was analyzed by SirCol assay. The messenger ribonucleic acid (mRNA) levels of extracellular proteins were measured by real-time polymerase chain reaction (PCR). The β-actin mRNA was used as internal control for the measurement of Collagen 1a1 mRNA using PCR. Fibroblast proliferation assay was performed in the presence or absence of 1 μM Compound JNKi-1 for 24 hr with the (3-(4,5-Dimethylthiazol-2-yl)-2,5-diphenyltetrazolium bromide) (MTT) assay.
The isolation of fibroblasts from human SSc patients and culture conditions used in this study have been previously described (Akhmetshina A, Dees C, Pileckyte M, Maurer B, Axmann R, Jüngel A, et al., Dual inhibition of c-abl and PDGF receptor signaling by dasatinib and nilotinib for the treatment of dermal fibrosis, FASEB J. 2008; 22(7):2214-22). […] Data are expressed as mean±standard error of the mean (SEM).

[5] = 150 mg/kg for the last 3 weeks of 6 weeks bleomycin

O[C@H]1CC[C@H](Nc2ncc3nc(Nc4c(F)cc(F)cc4F)n([C@H]4CCOC4)c3n2)CC1 [JNKi-1, 4-((9-((3S)-tetrahydro-3-furanyl)-8-((2,4,6-trifluorophenyl)amino)-9H-purin-2-yl)amino)-trans-cyclohexanol]
stimulatory effect of PDGF on c-Jun phosphorylation [1]: completely prevented | stimulatory effects of TGF-β and PDGF on the phosphorylation of c-Jun [1]: reduced the stimulatory effects | dermal thickness, normalized to NaCl injections for 6 weeks = 100% ([2]; 150 mg/kg BID for the last 3 weeks of 6 weeks bleomycin): 127±4% | accumulation of collagen (hydroxyproline assay) [2, 5]: significantly reduced | number of myofibroblasts, normalized to NaCl injections for 6 weeks = 100% [2, 5]: 171±31% | regression of established fibrosis / dermal thickening (in words) ([2]; treatment for the last 3 weeks of continuous bleomycin challenge): induced regression of dermal thickening; also recorded: induced regression of fibrosis | decrease of dermal thickness ([3]; 50 mg/kg orally BID, 3 weeks bleomycin, mean±SEM): 24%±5% | reduction of collagen content in lesional skin (hydroxyproline assay) ([3]; 50 mg/kg orally BID): 29%±11% | reduction of number of myofibroblasts (α-SMA IHC) ([3]; 50 mg/kg orally BID, mean±SEM): 80%±10% | reduction of collagen content in lesional skin (hydroxyproline assay) ([3]; 150 mg/kg orally BID): 47%±9% | reduction of number of myofibroblasts (α-SMA IHC) ([3]; 150 mg/kg orally BID, mean±SEM): 101%±9% | collagen content in lesional skin (in words) ([3]; 50 and 150 mg/kg orally BID): reduced dose-dependently | dermal thickness / development of fibrosis (in words) ([3]; 50 and 150 mg/kg orally BID): decreased dose-dependently; also recorded: reduced dose dependently; also recorded: significantly ameliorated; also recorded: dose-dependently inhibited dermal thickness | myofibroblasts in lesional skin (in words) ([3]; 50 and 150 mg/kg orally BID): significantly decreased; also recorded: completely prevented | cytotoxic effect / cell viability (MTT) [4]: does not exert its inhibitory effects indirectly by reducing cell viability; also recorded: no cytotoxic effect

From patent US8680076B2, “Methods of treatment, improvement and prevention using haloaryl substituted aminopurines” (Signal Pharmaceuticals, LLC, priority 2010, dated 2014)
